According to patent US12628750B2, “Plant cell chromosome doubling by application of electromagnetic field” (SYNGENTA CROP PROTECTION AG, priority 2020, dated 2026):
“And” between values parts separate entries of the source, which are not always exact repeats. Equal values may be shown once.

Assays:
[1] = tested on: haploid, diploid and interspecific hybrid embryos and seedlings; conditions: cited from earlier work
[2] = tested on: transgenic tobacco (Nicotiana tabacum) BY-2 cell line; test: Phragmoplast count by confocal microscopy in synchronized GFP-tubulin BY-2 cells; format: cell-based; conditions: 1.25 mM colchicine; n=3; * p≤0.05 vs No EMF
From the text: (§1) The transgenic tobacco (Nicotiana tabacum) BY-2 cell line was obtained from RIKEN BioResource Research Center (epd.brd.riken.jp/en/). This cell line expresses green fluorescent protein (“GFP”) fused to tobacco α-tubulin. See F. Kumagai, et al., Fate of nascent microtubules organized at the M/G1 interface, as visualized by synchronized tobacco BY02 cells stably expressing GFP-tubulin: Time-sequence observations of the reorganization of cortical microtubules in living plant cells, PLANT & CELL PHYS. 42:723-732 (2001). When viewed with a fluorescence microscope, the microtubules fluoresce and enable visualization of microtubule polymerization, including, e.g., spindle fiber and phragmoplast formation during cell division. The BY-GT16 cells were grown in modified LS media supplemented with 0.2 mg/L of 2,4-D. The cells were maintained in the dark at 27° C. on a rotary shaker at 130 rpm, with sub-culturing at 7-day intervals.
To aid visualization and increase the likelihood of observing a plurality of cells undergoing mitosis after S-phase, the BY-GT16 cells were synchronized. […]
After washing the aphidicolin from the cells, the cells were permitted to restart normal cellular processes for six hours (i.e., the cells were “released”). […] The oscilloscope monitored the sinusoidal variation of the EMF applied to the cells in the cuvette as a function of time. […]

BMS cell culture = test: Nuclear ploidy analysis (Sysmex Ploidy Analyzer) of BMS cell suspension culture after treatment; format: cell-based
Procedure: A BMS cell culture was obtained and maintained in liquid MS media supplemented with 2 mg/L of 2,4-D as described in Green and Phillips (1975). Five to seven days after subculture, the liquid cell culture was placed in a […] gap electroporation cuvette and exposed to EMF application at a frequency of 275 kHz, intensity of 25 V/cm, for a duration of 18 hours with constant shaking at room temperature to disrupt spindle fiber formation and interfere with mitosis. For each treatment, three other tests were also setup from the same culture: (i) 1.25 mM colchicine-treatment, (ii) no treatment culture in an electroporation cuvette, and (iii) no treatment culture that remained in the incubator flask. This duration allows for DNA replication without cell division, thereby causing chromosome doubling.
To measure doubling immediately after treatment, cell culture was prepared for nuclear ploidy analysis first by protoplasting cells for 3 hours in plant protoplast digest/wash buffer (Sigma-Aldrich® D9692) containing 1% cellulase R-10 (GoldBio™ C8001.0001) and 0.1% macerozyme R-10 (GoldBio™ M8002.0001) at 25 C with shaking at 120 rpm. After protoplasting, cells were pelleted by centrifugation at 14000 rpm for 1 min in a tabletop microcentrifuge and protoplast buffer was removed with a pipette. The cells were then resuspended by pipetting in 400 μl of nuclei extraction buffer (Sysmex®, CyStain® UV Precise P Nuclei Extraction Buffer, 05-5002) and mixed with 800 μl of nuclei staining solution (Sysmex®, CyStain® UV Precise P Staining Buffer, 05-5002). The stained nuclei were then passed through a 30 μm filter (Sysmex®, Non-sterile CellTrics® Filter, Green, 04-0042-2316) into the collection cuvette, and the filter rinsed with an additional 800 μl of nuclei staining solution. The cuvette was then loaded into a Sysmex® Ploidy Analyzer (CyFlow® Ploidy Analyzer, equipped with UV LED 365 nm laser) and data obtained for the entirety of the sample. Untreated BMS cell culture typically has 2-3 ploidy peaks, consistent with the majority of cells existing in a stable ploidy state (peak 1), and a minority of cells being in the process of mitosis and containing double the standard ploidy state (peak 2). […] The increase in the proportion of cells represented in the higher level peaks (3 and 4) was associated with a decrease in cells in the lower level peaks (1 and 2), providing direct evidence that field treatment doubled the genomes of cells moving them from peaks 1 and 2 into the category of peaks 3 and 4 (Table 4). To determine whether this change in the relative proportions of cell culture ploidy levels was statistically significant, eight experimental replicates were averaged and the values compared with pairwise T-tests (Table 5 and Table 6).

[3] = tested on: transgenic tobacco (Nicotiana tabacum) BY-2 cell line; test: Cell viability by trypan blue staining in synchronized BY-2 cells; format: cell-based
From the text: as §1
To aid visualization and increase the likelihood of observing a plurality of cells undergoing mitosis after S-phase, the BY-GT16 cells were synchronized. To do so, […] of 7-day old suspension culture was transferred into 14 mL of BY-2 media (recipes below in Example 4). To the new suspension, 14 μL aphidicolin (5 mg/mL) was added, and the suspension was incubated in the dark for 24 hours at 25° C. on a rotary shaker at 130 rpm. After incubation, the aphidicolin was removed by washing ten times with 16 mL of sterile BY-2 medium. At the end of the last wash, the cells were resuspended in 16 mL of fresh BY-2 medium and returned the washed suspension to the incubator. BY-2 cells reach maximum mitotic index after approximately eight hours. Generally, peak numbers of cells with phragmoplasts were observed approximately eleven hours after washing. Thus, the plurality of cells was reasonably synchronized.
After washing the aphidicolin from the cells, the cells were permitted to restart normal cellular processes for six hours (i.e., the cells were “released”). Next, the population of synchronized cells were prepared for placement in an EMF apparatus (FIG. 1). At that point, 775 μL of cell culture was placed into a 4 mm electroporation cuvette, which was held in place in the cavity of the apparatus using a plastic frame. The plastic frame was designed to fit inside a cavity of the apparatus and was created by 3D-printing. The frame was designed to be placed inside the cavity such that the electrodes (210 and 220) from the Amplifier (200) are able to stably contact the rigid surfaces of the metal plates (Terminals 310 and 320) defining the Cavity (300), which in this instance was configured to hold the cuvette (FIG. 1). The Function Generator (100) was connected to the amplifier and was used to control the frequency (kHz) and field intensity (effective V/cm in the cuvette) of the applied EMF. An optional Oscilloscope (400) was also attached to the positive electrode (210) at the point of contact with the metal plate (310) of the Cavity (FIG. 2). The oscilloscope monitored the sinusoidal variation of the EMF applied to the cells in the cuvette as a function of time.
For the time period between Hours 7 and 11 after mitotic release of the cells, the EMF was applied to the cells in the cuvette (for a total duration of four hours). After application, the Function Generator (100) was turned off and the cells were removed for viability staining and phragmoplast observation. The remaining cells were fixed in paraformaldehyde for later observation.
To determine at what frequency or range of frequencies the BY-2 mitotic structures would be susceptible to the effects of the EMF, frequency tests were conducted in pairs with controls. The controls included a “No Treatment” control where no EMF was applied over the course of several sessions (see “Date of Experiment” column). Since EMF is generated via application of an AC voltage, in some tests, the controls included the application of a corresponding DC voltage. […]

[4] = 1.25 mM colchicine, 18 hours, single replicates
[5] = 1.25 mM colchicine, trypan blue

## COc1cc2c(c(OC)c1OC)-c1ccc(OC)c(=O)cc1[C@@H](NC(C)=O)CC2 [Colchicine, colchicine]
[1]
  survival rate after chromosome doubling with colchicine: less than 100%
[1]; usually
  fertility after chromosome doubling with colchicine: less than 50%
[2]
  Average Phragmoplasts (Normalized): 1.0*
BMS cell culture; [4]
  Proportion of Cells in Each Ploidy Peak (%): Peak 1: 38.88% and 11.65% and 11.29% and 27.74% and 26.54% and 19.87% and 35.15% and 33.87%
  Proportion of Cells in Each Ploidy Peak (%): Peak 2: 57.77% and 59.12% and 74.64% and 57.21% and 57.50% and 58.10% and 54.88% and 53.99%
  Proportion of Cells in Each Ploidy Peak (%): Peak 3: 3.35% and 26.77% and 13.43% and 13.56% and 15.34% and 20.30% and 8.73% and 11.35%
  Proportion of Cells in Each Ploidy Peak (%): Peak 4: 0.00% and 2.46% and 0.64% and 1.49% and 0.62% and 1.72% and 1.23% and 0.79%
BMS cell culture; average of 8 replicates
  Avg Peak1%: 25.62%
  Avg Peak2%: 59.15%
  Avg Peak3%: 14.10%
  Avg Peak4%: 1.12%
BMS cell culture; pairwise T-tests, 8 replicates
  Cells of higher genome content compared to untreated controls (flask or cuvette): significantly more cells of higher genome content
[3]; 1.25 mM colchicine vs 250 and 275 kHz EMF
  Loss of viability compared to EMF treated cells: higher loss of viability
[3]; 1.25 mM colchicine, n=3
  Average Viability (Normalized): 101%
[3]; 1.25 mM colchicine, normalized to no treatment control
  Viability (Normalized to Control): 112.4% and 94.1% and 95.4%
[3]; [5]
  Dead Cells (Per 3 vertical columns): 87 and 112 and 120
  Live Cells (Per 3 vertical columns): 732 and 740 and 766
  Viability (% Live): 89.4% and 86.9% and 86.5%
